In series [1] the test system is human cardiomyocyte preparation. Particulars: for concentration from which ACs were induced: human.
Series [2] has the same test system. The series is described as follows: human cardiomyocyte contractility transients (system 20 validation with reference drugs). Particulars: human cardiomyocytes.
Series [3] deals with ex vivo human ventricular trabeculae preparation. Description: ex vivo human ventricular trabeculae force of contraction.
Series [4] has the same test system.

The values that follow come from US10794897B2, “System and methods for predicting drug-induced inotropic and pro-arrhythmia risk” (AnaBios Corporation, priority 2017, dated 2020).

Like-named read-outs stand apart in the source and are kept apart here.

As usually defined, the IC50 is the concentration needed to halve the response being measured.

For `CC[C@H]1OC(=O)[C@H](C)[C@@H](O[C@H]2C[C@@](C)(OC)[C@@H](O)[C@H](C)O2)[C@H](C)[C@@H](O[C@@H]2O[C@H](C)C[C@H](N(C)C)[C@H]2O)[C@](C)(OC)C[C@@H](C)C(=O)[C@H](C)[C@@H](O)[C@]1(C)O` [clarithromycin], in series [1], the sarcomere shortening result is “inhibited” and the “concentration from which ACs were induced” value (from here on “concentration”) is 10 -fold the fETPC.

For `CC(C)NCC(O)c1ccc(O)c(O)c1` (stereo not shown) [isoproterenol], in series [1], the AC incidence entry is “induced no AC”, the CE incidence entry is reported as “no CE incidence” and the TR90 result is reported as “decreased”. Further, in series [2] (positive inotropes), the FSF entry is on record as “increased”, the maximum contraction velocity result was “increased”, the “maximum contraction velocity time” value is given as “increased” and the maximum relaxation velocity result is listed as “increased”. In addition, in series [2] (positive inotropes), the “maximum relaxation velocity time” value is given as “no effects”, the peak height result is reported as “increased”, the “time to 10% peak” value is “decreased” and the “time to 50% peak” value is “decreased”. Also, the time to peak entry in series [2] (positive inotropes) was “no effects”. The “increase of MAC” value in series [3] (human ventricular trabeculae, at 0.03 μM) is 315%. In series [4], the AC incidence entry is given as “did not induce any ACs” and the TR90 entry is recorded as “decrease”.

Turning to `C[C@@H]1CC(=O)NN=C1c1ccc(NN=C(C#N)C#N)cc1` [levosimendan], in series [2] (at 10-fold the fETPC), the AC incidence entry was “levosimendan did”. Moreover, in series [2] (positive inotropes), the CE incidence entry was “no CE incidence”, the FSF result was “increased”, the TR90 result was “no effect” and the maximum contraction velocity entry was “increased”. In series [2] (positive inotropes), the “maximum contraction velocity time” value is “no effect”, the maximum relaxation velocity entry was “increased”, the “maximum relaxation velocity time” value is given as “no effects” and the peak height entry is reported as “increased”. In series [2] (positive inotropes), the “time to 10% peak” value is “no effect”, the “time to 50% peak” value is “no effect” and the time to peak entry was “no effects”.

As for `CN(CCOc1ccc(NS(C)(=O)=O)cc1)CCc1ccc(NS(C)(=O)=O)cc1` [dofetilide], in series [1], the sarcomere shortening entry is “no effects” and the “concentration” value is reported as 10 -fold the fETPC. Moreover, in series [3] (human ventricular trabeculae), the “MAC (maximum amplitude of force of contraction)” value is reported as “no effects” and the TR90 result is given as “concentration-dependent increase”. The AC incidence result in series [3] (human ventricular trabeculae, starting at the fETPC) is “observed starting at the fETPC”.

Turning to `C=C[C@H]1C[N@@]2CC[C@H]1C[C@@H]2[C@@H](O)c1ccnc2ccc(OC)cc12` [quinidine], in series [1], the “AC (after-contraction) incidence” value was “concentration-dependent increases”, the “CE (contractility escape) incidence” value was “concentration-dependent increases” and the “TR90 (time to 90% relaxation)” value is recorded as “prolongation”.

Regarding `COc1ccc(CCN(C)CCCC(C#N)(c2ccc(OC)c(OC)c2)C(C)C)cc1OC` (stereo not shown) [verapamil], in series [2] (up to 222-fold the fETPC), the AC incidence entry was “neither AC or CE incidence”, the CE incidence entry was “neither AC or CE incidence” and the TR90 result is “no change”. For the same compound, the IC50 in series [3] (Homo sapiens, read-out: IC50 for decrease of MAC) was 1460 nM.

Turning to `Cc1cccc(C)c1OCC(C)N` (stereo not shown) [mexiletine], in series [1], the AC incidence result was “induced no ACs” and the sarcomere shortening result is given as “inhibited”.

For the compound `CC(C)NCC(O)c1ccc(NS(C)(=O)=O)cc1` (racemic) [sotalol, d,l-sotalol], in series [1], the sarcomere shortening entry is “no effects” and the “concentration” value was 10 -fold the fETPC. For the same compound, the TR90 result in series [4] is recorded as “concentration-dependent increase”.

Consider `COc1cc(N)c(Cl)cc1C(=O)NC1CCN(CCCOc2ccc(F)cc2)CC1OC` (stereo not shown) [cisapride], for which, in series [1], the “AC (after-contraction) incidence” value is reported as “seen starting at the fETPC” and the sarcomere shortening result is given as “inhibited”.

As for `O=c1[nH]c2ccccc2n1CCCN1CCC(n2c(=O)[nH]c3cc(Cl)ccc32)CC1` [domperidone], in series [1], the “AC (after-contraction) incidence” value was “seen starting at the fETPC” and the sarcomere shortening result is on record as “inhibited”.

Regarding `COc1ccccc1OCC(O)CN1CCN(CC(=O)Nc2c(C)cccc2C)CC1` (stereo not shown) [ranolazine], in series [1], the AC incidence result is reported as “induced no ACs” and the sarcomere shortening entry is given as “inhibited”.
